Experiment [1] relates to aged C57BL6/J mice. In words: 2-PMPA treatment of aged C57BL6/J mice: muscle function, muscle mass, frailty, survival, plasma cytokines. The class given is in vivo. Conditions: 15-month old WT mice, 100 mg/kg, 5 days per week for 5 months, vs vehicle.
The test system of experiment [2] is aged C57BL6/J mice. Described as above. In kind it is in vivo. As for the experimental part:
To determine whether 2-PMPA treatment could delay muscle function loss in aged animals, 15-month old C57BL6/J mice were treated with 100 mg/kg of 2-PMPA IP daily for 5 months and monthly body weight, grip strength, compound muscle action potential (CMAP), open field behavior, end stage muscle weights and survival were monitored.
After 5 months of treatment, 2-PMPA treated animals were moving more in the open field apparatus.

[3] abbreviates: 20 weeks of 2-PMPA treatment, plasma.

SMILES strings stand for the structures.

Take `O=C(O)CCC(CP(=O)(O)O)C(=O)O` (stereo not shown) [Compound 2-PMPA, 2-(phosphonomethyl) pentanedioic acid]: in the experiment with aged C57BL6/J mice [1], the “compound muscle action potential (CMAP) in the foot muscles” value was “significantly improved”, the grip strength entry was “significantly improved” and the “movement in open field” value is given as “significantly improved”. Besides, the “calf muscle area measured by MRI” value with aged C57BL6/J mice [2] (2 months on treatment, vs vehicle treated mice) was “significantly greater”. Moreover, the gastrocnemius muscle weights entry in the experiment with aged C57BL6/J mice [2] (5 months of treatment, vs vehicle treated mice) is listed as “significantly increased”. Further, in the experiment on aged C57BL6/J mice [2] (15-month old C57BL6/J mice, 100 mg/kg 2-PMPA IP, 5 months, vehicle 8%), the “survival after 5 months of treatment” value was determined as 58%. Further, in the experiment on aged C57BL6/J mice [2] (15-month old C57BL6/J mice, 100 mg/kg 2-PMPA, vs vehicle), the “median survival exceeding the vehicle mice” value is reported as 106 days. In the experiment with aged C57BL6/J mice [2] (setting [3]), the “plasma IFN-gamma” value is on record as “reduced”, the “plasma IL-1beta” value is given as “reduced” and the “plasma TNF-alpha” value was “reduced”. In addition, the frailty index scores result with aged C57BL6/J mice [2] (after 5 months of treatment, vs vehicle-treated mice) is recorded as “significantly reduced”. In addition, the body weight loss result in the experiment with aged C57BL6/J mice [2] (after 5 months on 2-PMPA therapy, vs vehicle treated mice) is reported as “significant delay”. The “gastrocnemius muscle fiber cross sectional area (CSA)” value in the experiment on aged C57BL6/J mice [2] (old mice treated with 2-PMPA vs vehicle treated old mice) is “significantly larger”.
